Data published in patent US9676760B2, “Fused heterocyclic compounds as ion channel modulators” (Gilead Sciences, Inc., priority 2011, dated 2017).

Assays:
[1] = biological target: T1, wild-type human cardiac sodium channel, hNav1.5 (Homo sapiens, UniProt Q14524); experiment: Peak INa screening assay (tonic and use-dependent block); format: cell-based; details: compound at 1 μM
Experimental: The late sodium current (Late INa) and peak sodium current (Peak INa) assays are performed on an automated electrophysiology platform, QPatch 16× (Sophion Bioscience, Copenhagen, Denmark), which uses the whole cell patch clamp technique to measure currents through the cell membrane of up to 16 cells at a time. The assay uses an HEK293 (human embryonic kidney) cell line heterologously expressing the wild-type human cardiac sodium channel, hNav1.5, purchased from Millipore (Billerica, Mass.). No beta subunits were coexpressed with the Na channel alpha subunit. Cells are maintained with standard tissue culture procedures and stable channel expression is maintained with 400 μg/mL Geneticin in the culture medium. Cells isolated for use on QPatch are incubated for 5 minutes in Detachin 1×(Genlantis, San Diego, USA) at 37° C. to ensure that 80-90% of the cells are single and not part of a cell cluster. Experiments are carried out at 23-25° C.
For both the Late INa and Peak INa assays, series resistance compensation is set to 100% and series resistance and whole-cell compensation are performed automatically. Currents are digitized at 25 kHz and low-pass filtered at 12 kHz and 10 kHz for the late and peak INa assays, respectively. Currents through open sodium channels are automatically recorded and stored in the Sophion Bioscience Oracle database (Sophion Bioscience, Copenhagen, Denmark). Analysis is performed using QPatch Assay and database software and data are compiled in Excel.
Compound stocks are routinely made by the Gilead Sample Bank in plastic vials to 10 mM in dimethyl sulfoxide (DMSO). In some cases, when compounds are not soluble in DMSO, they are made in 100% ethanol. Stocks are sonicated as necessary. The extracellular solution for screening Late INa is composed of: 140 mM NaCl, 4 mM KCl, 1.8 mM CaCl2, 0.75 mM MgCl2 and 5 mM HEPES with pH adjusted to 7.4 using NaOH. The intracellular solution used to perfuse the inside of the cells for both the Late INa and Peak INa assays contains: 120 mM CsF, 20 mM CsCl, 5 mM EGTA, 5 mM HEPES and pH adjusted to 7.4 with CsOH. Compounds are diluted in extracellular solution to 1 μM in glass vials and then transferred to glass well plates before robotic addition to the cells. The 0 mM Na extracellular solution (0Na-ECF) used at the end of each experiment for the Late INa and Peak INa assays to measure baseline current contains: 140 mM N-methyl-D-glucamine; 4 mM KCl; 1.8 mM CaCl2; 0.75 mM MgCl2; 5 mM HEPES and pH was adjusted to 7.4 with HCl.
Compounds were also evaluated for their effect in several other assays, including their effect on Peak INa. […] Since the peak INa in the cells used herein can be very large, introducing artifacts in the recording, the concentration of Na^+ in the bath can be reduced to 20 mM and a nonpermeant cation added to compensate for the Na^+ that was removed to maintain the osmolarity and ionic strength of the solution (see solution details below).
A low stimulation frequency of 0.1 Hz was used to determine the effect of the test compound when the channel spent most of the time in the resting (closed) state and provides information about Tonic Block (TB). A higher stimulation frequency (3 Hz) was used to measure block of the channel when it spent more time in the activated and inactivated states and provided a measure of Use-Dependent Block (UDB). Use-dependent block refers to the accumulation of block with increased frequency of channel activation.

[2] = biological target: T1, wild-type human cardiac sodium channel, hNav1.5; experiment: Late INa screening assay (QPatch whole cell patch clamp, HEK293); format: cell-based; details: HEK293, percent block of late INa; compound at 1 μM; 10 μM Tefluthrin; read-out: Late INa 1 μM
Summary of the method: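 HEK293 stably expressing hNav1.5 without beta subunits, recorded at 23-25° C. Late current was induced by 10 μM tefluthrin. Cells were depolarized from −120 mV to −20 mV for 250 ms at 0.1 Hz. Compounds were tested at 1 μM in extracellular solution, with baseline taken in 0Na-ECF; output is percent block of late INa.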

[3] = tonic block of peak INa, 0.1 Hz, read-out: Peak TB 1 μM
[4] = use-dependent block of peak INa, 3 Hz, read-out: Peak UDB 1 μM

T1 sequence (Q14524 whole entry): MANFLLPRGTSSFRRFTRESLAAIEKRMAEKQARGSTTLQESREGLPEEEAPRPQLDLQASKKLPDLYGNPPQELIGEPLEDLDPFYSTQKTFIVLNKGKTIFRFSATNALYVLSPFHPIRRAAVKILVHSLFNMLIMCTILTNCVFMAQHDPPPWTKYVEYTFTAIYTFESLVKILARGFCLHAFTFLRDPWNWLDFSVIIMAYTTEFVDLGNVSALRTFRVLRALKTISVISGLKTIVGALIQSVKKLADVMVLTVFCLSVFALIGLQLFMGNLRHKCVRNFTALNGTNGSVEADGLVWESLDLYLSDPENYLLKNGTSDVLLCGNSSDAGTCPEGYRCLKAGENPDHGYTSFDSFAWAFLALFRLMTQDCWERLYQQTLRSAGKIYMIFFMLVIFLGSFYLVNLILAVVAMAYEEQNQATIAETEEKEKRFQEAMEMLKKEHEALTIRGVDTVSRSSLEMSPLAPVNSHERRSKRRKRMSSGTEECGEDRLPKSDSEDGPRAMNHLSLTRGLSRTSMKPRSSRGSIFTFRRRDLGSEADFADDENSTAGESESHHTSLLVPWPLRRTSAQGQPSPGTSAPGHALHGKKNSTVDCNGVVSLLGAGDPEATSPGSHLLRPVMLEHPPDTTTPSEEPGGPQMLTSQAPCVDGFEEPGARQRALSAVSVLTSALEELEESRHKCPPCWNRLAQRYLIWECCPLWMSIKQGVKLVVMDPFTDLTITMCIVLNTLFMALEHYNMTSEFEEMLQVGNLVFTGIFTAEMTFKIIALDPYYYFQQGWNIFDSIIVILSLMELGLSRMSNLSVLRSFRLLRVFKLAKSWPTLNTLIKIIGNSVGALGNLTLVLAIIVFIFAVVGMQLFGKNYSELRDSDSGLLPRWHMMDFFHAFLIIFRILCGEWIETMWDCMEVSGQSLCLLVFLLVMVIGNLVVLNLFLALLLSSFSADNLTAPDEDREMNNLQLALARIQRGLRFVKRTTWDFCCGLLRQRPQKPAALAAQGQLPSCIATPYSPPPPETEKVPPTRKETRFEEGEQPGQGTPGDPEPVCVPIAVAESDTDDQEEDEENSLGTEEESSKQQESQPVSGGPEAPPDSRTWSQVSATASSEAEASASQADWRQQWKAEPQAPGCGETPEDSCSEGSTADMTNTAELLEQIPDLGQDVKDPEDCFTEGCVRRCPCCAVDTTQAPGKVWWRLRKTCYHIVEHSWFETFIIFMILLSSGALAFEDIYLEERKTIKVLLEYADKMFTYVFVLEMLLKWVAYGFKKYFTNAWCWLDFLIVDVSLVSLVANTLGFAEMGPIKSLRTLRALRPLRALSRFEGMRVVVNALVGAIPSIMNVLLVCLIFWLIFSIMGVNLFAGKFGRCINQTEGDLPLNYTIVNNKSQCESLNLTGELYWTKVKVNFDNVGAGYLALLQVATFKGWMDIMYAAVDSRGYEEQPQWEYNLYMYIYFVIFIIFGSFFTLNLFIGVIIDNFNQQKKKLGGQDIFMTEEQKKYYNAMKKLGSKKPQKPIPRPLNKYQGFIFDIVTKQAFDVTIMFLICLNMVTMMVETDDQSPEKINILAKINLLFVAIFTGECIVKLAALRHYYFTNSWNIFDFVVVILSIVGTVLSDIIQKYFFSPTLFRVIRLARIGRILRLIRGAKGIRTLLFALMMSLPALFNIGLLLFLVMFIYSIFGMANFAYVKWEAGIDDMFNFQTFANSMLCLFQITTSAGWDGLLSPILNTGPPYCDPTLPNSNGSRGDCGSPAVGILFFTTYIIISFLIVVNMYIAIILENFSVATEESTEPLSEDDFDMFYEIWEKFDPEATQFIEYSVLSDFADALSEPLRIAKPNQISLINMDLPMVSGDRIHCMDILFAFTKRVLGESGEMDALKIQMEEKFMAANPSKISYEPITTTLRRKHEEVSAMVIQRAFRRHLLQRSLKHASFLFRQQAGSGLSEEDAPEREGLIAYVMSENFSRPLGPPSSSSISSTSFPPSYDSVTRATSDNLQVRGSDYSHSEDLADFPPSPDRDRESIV

Row | Compound | inhibition at 1 µM [1, 3] | inhibition at 1 µM [1, 4] | inhibition at 1 µM [2]
1 | CN1C(=O)CN(Cc2ccccc2)C(=O)c2cc(-c3ccc(C(F)(F)F)cc3)ccc21 [Compound X-11, 4-benzyl-1-methyl-7-(4-(trifluoromethyl)phenyl)-3,4-dihydro-1H-benzo[e][1,4]diazepine-2,5-dione] | 17% | 20% | 48%
2 | O=C1c2cc(-c3ccc(OC(F)(F)F)cc3)ccc2OCCN1Cc1cccc(C(F)(F)F)n1 [II-15, 7-(4-(trifluoromethoxy)phenyl)-4-((6-(trifluoromethyl)pyridin-2-yl)methyl)-3,4-dihydrobenzo[f][1,4]oxazepin-5(2H)-one] | 8% | 8% | 48%
3 | O=C1c2cc(-c3ccc(OC(F)(F)F)cc3)ccc2OCCN1Cc1cnccn1 [II-31, 4-(pyrazin-2-ylmethyl)-7-(4-(trifluoromethoxy)phenyl)-3,4-dihydrobenzo[f][1,4]oxazepin-5(2H)-one] | 9% | 8% | 51%
4 | Cc1cnc(CN2CCOc3ccc(-c4ccc(OC(F)(F)F)cc4)cc3C2=O)o1 [II-33, 4-((5-methyloxazol-2-yl)methyl)-7-(4-(trifluoromethoxy)phenyl)-3,4-dihydrobenzo[f][1,4]oxazepin-5(2H)-one] | 10% | 13% | 46%
5 | O=C1c2cc(-c3ccc(OC(F)(F)F)cc3)ccc2OCCN1Cc1ccccc1Cl [II-47, 4-(2-chlorobenzyl)-7-(4-(trifluoromethoxy)phenyl)-3,4-dihydrobenzo[f][1,4]oxazepin-5(2H)-one] | 13% | 45% | 60%
6 | O=C1c2cc(-c3ccc(OC(F)(F)F)cc3)ccc2OCCN1Cc1c(Cl)cccc1Cl [II-48, 4-(2,6-dichlorobenzyl)-7-(4-(trifluoromethoxy)phenyl)-3,4-dihydrobenzo[f][1,4]oxazepin-5(2H)-one] | 13% | 53% | 47%
7 | O=C1c2cc(-c3ccc(OC(F)(F)F)cc3)ccc2OCCN1Cc1c(F)cccc1F [II-49, 4-(2,6-difluorobenzyl)-7-(4-(trifluoromethoxy)phenyl)-3,4-dihydrobenzo[f][1,4]oxazepin-5(2H)-one] | 28% | 44% | 63%
8 | O=C1c2cc(-c3ccc(OC(F)(F)F)cc3)ccc2OCCN1CCn1cccn1 [II-50, 4-(2-(1H-pyrazol-1-yl)ethyl)-7-(4-(trifluoromethoxy)phenyl)-3,4-dihydrobenzo[f][1,4]oxazepin-5(2H)-one] | 5% | 19% | 48%
9 | O=C1c2cc(-c3ccc(OC(F)(F)F)cc3)ccc2OCCN1CCc1ccccn1 [II-54, 4-(2-(pyridin-2-yl)ethyl)-7-(4-(trifluoromethoxy)phenyl)-3,4-dihydrobenzo[f][1,4]oxazepin-5(2H)-one] | 13% | 20% | 51%
10 | O=C1c2cc(-c3ccc(OC(F)(F)F)cc3)ccc2OCCN1Cc1ccccc1F [II-57, 4-(2-fluorobenzyl)-7-(4-(trifluoromethoxy)phenyl)-3,4-dihydrobenzo[f][1,4]oxazepin-5(2H)-one] | 50% | 41% | 55%
11 | O=C1c2cc(-c3ccc(OC(F)(F)F)cc3)ccc2OCCN1Cc1ccc(F)cc1 [II-62, 4-(4-fluorobenzyl)-7-(4-(trifluoromethoxy)phenyl)-3,4-dihydrobenzo[f][1,4]oxazepin-5(2H)-one] | 10% | 14% | 49%
12 | Cn1ccc(CN2CCOc3ccc(-c4ccc(OC(F)(F)F)cc4)cc3C2=O)n1 [II-64, 4-((1-methyl-1H-pyrazol-3-yl)methyl)-7-(4-(trifluoromethoxy)phenyl)-3,4-dihydrobenzo[f][1,4]oxazepin-5(2H)-one] | 12% | 19% | 55%
13 | O=C1c2cc(-c3ccc(OC(F)(F)F)cc3)ccc2OCCN1Cc1ccccn1 [II-72, 4-(pyridin-2-ylmethyl)-7-(4-(trifluoromethoxy)phenyl)-3,4-dihydrobenzo[f][1,4]oxazepin-5(2H)-one] | 22% | 34% | 60%
14 | O=C1c2cc(-c3ccc(OC(F)(F)F)cc3)ccc2OCCN1Cc1ccccc1 [II-134, 4-benzyl-7-(4-(trifluoromethoxy)phenyl)-3,4-dihydrobenzo[f][1,4]oxazepin-5(2H)-one] | 38% | 34% | 69%
15 | COc1ccnc(CN2CCOc3ccc(-c4ccc(OC(F)(F)F)cc4)cc3C2=O)n1 [II-137, 4-((4-methoxypyrimidin-2-yl)methyl)-7-(4-(trifluoromethoxy)phenyl)-3,4-dihydrobenzo[f][1,4]oxazepin-5(2H)-one] | 28% | 26% | 54%
16 | O=C1c2cc(-c3ccc(C(F)(F)F)cc3)ccc2OCCN1Cc1ccccc1 [II-141, 4-benzyl-7-(4-(trifluoromethyl)phenyl)-3,4-dihydrobenzo[f][1,4]oxazepin-5(2H)-one] | 40% | 40% | 73%
17 | O=C1c2cc(-c3ccc(OCC4CCC4)cc3)ccc2OCCN1Cc1ncccn1 [II-144, 7-(4-(cyclobutylmethoxy)phenyl)-4-(pyrimidin-2-ylmethyl)-3,4-dihydrobenzo[f][1,4]oxazepin-5(2H)-one] | 34% | 41% | 68%
18 | O=C1c2cc(-c3ccc(OC(F)(F)F)cc3)ccc2OCCN1Cc1ccn(C(F)F)n1 [II-147, 4-((1-(difluoromethyl)-1H-pyrazol-3-yl)methyl)-7-(4-(trifluoromethoxy)phenyl)-3,4-dihydrobenzo[f][1,4]oxazepin-5(2H)-one] | 13% | 6% | 54%
19 | O=C1c2cc(-c3ccc(CC(F)(F)F)cc3)ccc2OCCN1Cc1ccccn1 [II-151, 4-(pyridin-2-ylmethyl)-7-(4-(2,2,2-trifluoroethyl)phenyl)-3,4-dihydrobenzo[f][1,4]oxazepin-5(2H)-one] | 13% | 14% | 51%
20 | CCn1ccc(CN2CCOc3ccc(-c4ccc(OC(F)(F)F)cc4)cc3C2=O)n1 [II-153, 4-((1-ethyl-1H-pyrazol-3-yl)methyl)-7-(4-(trifluoromethoxy)phenyl)-3,4-dihydrobenzo[f][1,4]oxazepin-5(2H)-one] | 15% | 13% | 56%
21 | O=C1c2cc(Nc3ccc(C(F)(F)F)cc3)ccc2OCCN1Cc1ncccn1 [XIII-3, 4-(pyrimidin-2-ylmethyl)-7-(4-(trifluoromethyl)phenylamino)-3,4-dihydrobenzo[f][1,4]oxazepin-5(2H)-one] | – | – | 17%
22 | CN(c1ccc(OC(F)(F)F)cc1)c1ccc2c(c1)C(=O)N(Cc1ncccn1)CCO2 [XIII-10, 7-(methyl(4-(trifluoromethoxy)phenyl)amino)-4-(pyrimidin-2-ylmethyl)-3,4-dihydrobenzo[f][1,4]oxazepin-5(2H)-one] | – | – | 22%
